Assay results reported in the supplement of paper PMC10307832.

Legend:
Assay in all cases: relative viability (nuclei count vs DMSO), 5 days (fraction); higher = more cells survive
[1] = compound: C1=CC=C(C(=C1)C2=CC=C(C=C2)C3=CSC4=C3C(=C(C(=O)N4)C#N)O)O + CCNC(=O)c1noc(-c2cc(C(C)C)c(O)cc2O)c1-c1ccc(CN2CCOCC2)cc1 [Luminespib] (partner 0.01 µM)
Summary of the method: (§1)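 Nuclei were stained with Hoechst during a one-step fixation (final 0.05% Triton X-100, 1% formaldehyde, 1 ug/ml Hoechst) carried out 5 days after dosing, then counted on 4× images. The cells, lung cancer lines in 1536-well plates, had been dosed by pin tool the day after seeding with one drug alone or a fixed anchor-drug dose plus five library-drug doses (not always all listed) in √10 steps. Relative viability is the nuclei count in treated wells divided by that in vehicle wells, and each value is the median of duplicate plates.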

[2] = compound: CC1=CN2C(=O)C=C(N=C2C(=C1)C(C)NC3=CC=CC=C3)N4CCOCC4 [TGX 221] + Cc1cc(Nc2cc(N3CCN(C)CC3)nc(Sc3ccc(NC(=O)C4CC4)cc3)n2)n[nH]1 [Tozasertib] (partner 0.1 µM)
Summary of the method: as §1

[3] = compound: CC1=CN2C(=O)C=C(N=C2C(=C1)C(C)NC3=CC=CC=C3)N4CCOCC4 [TGX 221] + N=C(N)NC(=N)NCCc1ccccc1 [Phenformin] (partner 250 µM)
Summary of the method: as §1

[4] = compound: CC1=CN2C(=O)C=C(N=C2C(=C1)C(C)NC3=CC=CC=C3)N4CCOCC4 [TGX 221] + NC(=O)Nc1cc(-c2cccc(F)c2)sc1C(=O)N[C@H]1CCCNC1 [AZD7762] (partner 0.2 µM)
Summary of the method: as §1

| Cell Line | relative viability ([1]; first compound 0.253 µM) | relative viability ([1]; first compound 0.8 µM) | relative viability ([1]; first compound 2.53 µM) | relative viability ([1]; first compound 8 µM) | relative viability ([2]; first compound 0.253 µM) | relative viability ([2]; first compound 0.8 µM) | relative viability ([2]; first compound 2.53 µM) | relative viability ([2]; first compound 8 µM) | relative viability ([3]; first compound 0.08 µM) | relative viability ([3]; first compound 0.253 µM) | relative viability ([3]; first compound 0.8 µM) | relative viability ([3]; first compound 2.53 µM) | relative viability ([3]; first compound 8 µM) | relative viability ([4]; first compound 0.08 µM) | relative viability ([4]; first compound 0.253 µM) | relative viability ([4]; first compound 0.8 µM) | relative viability ([4]; first compound 2.53 µM) | relative viability ([4]; first compound 8 µM) | relative viability ([1]; first compound 0.08 µM) | relative viability ([2]; first compound 0.08 µM) |
| --- | --- | --- | --- | --- | --- | --- | --- | --- | --- | --- | --- | --- | --- | --- | --- | --- | --- | --- | --- | --- |
| HCC-44 | 1.55 | 0.993 | 1.12 | 0.822 | 0.947 | 1.03 | 0.92 | 0.695 | 0.157 | 0.212 | 0.212 | 0.201 | 0.177 | 0.992 | 1.04 | 1.02 | 1.1 | 1.09 | – | – |
| CAL-12T | 0.565 | 0.362 | 0.585 | 0.264 | 0.329 | 0.322 | 0.314 | 0.2 | 0.629 | 0.55 | 0.62 | 0.56 | 0.661 | 0.637 | 0.656 | 0.542 | 0.577 | 0.666 | 0.296 | 0.324 |
| ChaGo-K-1 | 0.628 | 0.684 | 0.597 | 0.604 | 0.202 | 0.216 | 0.219 | 0.191 | 0.479 | 0.512 | 0.481 | 0.456 | 0.494 | 0.922 | 0.826 | 0.873 | 0.827 | 0.838 | 0.706 | 0.22 |
| NCI-H2126 | 0.895 | 0.89 | 0.948 | 0.928 | 0.886 | 0.797 | 0.768 | 0.756 | 0.483 | 0.487 | 0.535 | 0.515 | 0.507 | 0.943 | 0.907 | 1.04 | 0.966 | 1.15 | 0.894 | 0.826 |
| HCC-827 | 0.845 | 0.573 | 0.7 | 0.43 | 0.436 | 0.424 | 0.401 | 0.349 | 0.386 | 0.4 | 0.344 | 0.359 | 0.334 | 0.197 | 0.269 | 0.233 | 0.201 | 0.148 | 0.639 | 0.414 |
| LCLC-97TM1 | 1.07 | 0.78 | 0.729 | 0.654 | 0.179 | 0.191 | 0.239 | 0.143 | 0.394 | 0.399 | 0.419 | 0.405 | 0.418 | 0.139 | 0.273 | 0.247 | 0.128 | 0.277 | 0.971 | 0.214 |
| HCC-15 | 0.289 | 0.297 | 0.38 | 0.3 | 0.463 | 0.407 | 0.323 | 0.237 | 0.482 | 0.471 | 0.483 | 0.451 | 0.497 | 1.1 | 1.02 | 0.673 | 1.21 | 1.13 | 0.277 | 0.438 |
| NCI-H727 | 0.356 | 0.43 | 0.487 | 0.341 | 0.64 | 0.65 | 0.571 | 0.542 | 0.635 | 0.621 | 0.537 | 0.486 | 0.51 | 0.492 | 0.688 | 0.695 | 0.592 | 0.546 | 0.451 | 0.543 |
| NCI-H2170 | 1.11 | 0.992 | 0.752 | 0.609 | 0.666 | 0.626 | 0.731 | 0.67 | 0.421 | 0.413 | 0.464 | 0.431 | 0.362 | 0.81 | 0.825 | 0.861 | 0.871 | 0.917 | 0.594 | 0.658 |
| 201T | 0.981 | 1.03 | 1.09 | 1.08 | 0.933 | 0.955 | 0.833 | 0.808 | 0.459 | 0.436 | 0.428 | 0.434 | 0.439 | 0.55 | 0.685 | 0.611 | 0.615 | 0.569 | 0.873 | 0.915 |
| NCI-H838 | 0.333 | 0.242 | 0.197 | 0.329 | 0.257 | 0.282 | 0.247 | 0.192 | 0.607 | 0.534 | 0.496 | 0.471 | 0.428 | 0.892 | 0.911 | 0.877 | 0.77 | 0.849 | 0.276 | 0.276 |
| NCI-H1915 | 0.632 | – | 0.929 | 0.576 | 0.406 | 0.422 | 0.389 | 0.377 | 0.347 | 0.358 | 0.359 | 0.347 | 0.374 | 0.655 | 0.665 | 0.665 | 0.596 | 0.712 | 0.665 | 0.399 |
| LCLC-103H | 0.98 | 1.06 | 0.929 | 1.06 | 0.466 | 0.465 | 0.434 | 0.354 | 0.302 | 0.344 | 0.311 | 0.321 | 0.324 | 0.789 | 0.762 | 0.771 | 0.707 | 0.731 | 0.87 | 0.409 |
| NCI-H2347 | 0.404 | 0.405 | 0.37 | 0.492 | 0.418 | 0.538 | 0.422 | 0.33 | 0.427 | 0.385 | 0.389 | 0.234 | 0.213 | 0.639 | 0.61 | 0.639 | 0.583 | 0.547 | 0.354 | 0.514 |
| ABC-1 | 0.768 | 0.78 | 0.481 | 0.513 | 0.157 | 0.203 | 0.188 | 0.161 | 0.228 | 0.228 | 0.19 | 0.217 | 0.253 | 0.859 | 0.908 | 0.743 | 0.749 | 1.08 | 0.509 | 0.192 |
| NCI-H1355 | 0.681 | 0.727 | 0.61 | 0.533 | 0.564 | 0.621 | 0.483 | 0.382 | 0.439 | 0.465 | 0.439 | 0.419 | 0.433 | 0.691 | 0.679 | 0.775 | 0.65 | 0.675 | 0.542 | 0.541 |
